Settings: for log10 BCF / log10 biotransformation half-life (days): fish

FC(F)(F)N1C(F)(F)C(F)(F)OC(F)(F)C1(F)F
boiling point: 51 °C | melting point: -80 °C

Cc1ccc([N+](=O)[O-])cc1O
ready biodegradability: not readily biodegradable | log10 BCF: 0.85 | log10 biotransformation half-life (days): -1.24

Oc1cccc(Br)c1
boiling point: 236 °C | melting point: 33 °C | ready biodegradability: not readily biodegradable | log10 BCF: 1.18 | log10 biotransformation half-life (days): -0.95

CCCCNCC(=O)Nc1c(C)cccc1Cl
melting point: 45.5 °C

CC(C)COC(=O)OCC(C)C
boiling point: 190 °C

Nc1ncccn1
melting point: 128 °C

CC(C#N)c1ccccc1 (configuration not stated)
boiling point: 231 °C

C=CC[Si](Cl)(Cl)Cl
boiling point: 118 °C | log10 vapour pressure (mmHg): 1.25 | melting point: 35 °C

S=C([S-])[S-]
melting point: -30 °C

CC(C)CCC(=O)O
boiling point: 200 °C | melting point: -33 °C

c1ccc(N(CC2CO2)CC2CO2)cc1 (configuration not stated)
ready biodegradability: not readily biodegradable

Cc1n[nH]c(=S)[nH]c1=O
melting point: 218 °C

CC(C)OC(=O)C1(S(=O)(=O)c2ccc([N+](=O)[O-])cc2)CCC1
melting point: 65.5 °C

OCc1ccc(O)cc1
boiling point: 252 °C | melting point: 124 °C

O=S(=O)(O)c1ccc(Nc2ccccc2)cc1
melting point: 206 °C

CN1Cc2c(ccc3c2OCO3)[C@@H]2[C@H]1c1cc3c(cc1C[C@@H]2O)OCO3
melting point: 136 °C

CC(=O)NCCCCCC(=O)O
melting point: 104 °C

CCCC(C)(C)C(C)C
boiling point: 138 °C | log10 vapour pressure (mmHg): 0.993 | melting point: -117 °C

NS(=O)(=O)c1ccc(CCCCCO)cc1
melting point: 86 °C

CCOC(=O)C1CCCC1=O (configuration not stated)
boiling point: 221 °C

C/C=C1/C[C@@H](C)[C@](O)(CO)C(=O)OCC2=CCN3CC[C@@H](OC1=O)[C@@H]23
melting point: 212 °C

Cc1cccc(C(C)C)c1O
boiling point: 226 °C | melting point: -14.5 °C

CCCC(=O)C(C)C
boiling point: 135 °C

CC(=O)Oc1ccccc1[N+](=O)[O-]
log10 vapour pressure (mmHg): -2.66 | melting point: 40.5 °C

ClC1CC2CCC1C2 (configuration not stated)
boiling point: 162 °C | melting point: -5 °C

C1COCO1
boiling point: 78 °C | log10 Henry constant (atm·m³/mol): -4.61 | log10 vapour pressure (mmHg): 1.9 | melting point: -95 °C

O=C(NCO)NCO
melting point: 126 °C

C=CCC1(C(C)CCC)C(=O)NC(=S)NC1=O (configuration not stated)
melting point: 132 °C

CC(C)OC(=O)C=CC(=O)OC(C)C
boiling point: 280 °C | melting point: 2.1 °C

OCCNCCNCCO
melting point: 97.5 °C

CCOC(=O)CC[C@H](N)C(=O)OCC.Cl
melting point: 109 °C

OCC1(CO)CC=CCC1
melting point: 88.5 °C

Clc1ccc2c(oc3c(Cl)c(Cl)c(Cl)c(Cl)c32)c1Cl
log10 BCF: 2.78 | log10 biotransformation half-life (days): 0.43

O=C(OCc1ccccc1)c1sc(Cl)nc1C(F)(F)F
log10 vapour pressure (mmHg): -6.53 | melting point: 52 °C

CC(C)(C)NC=O
boiling point: 202 °C | log10 vapour pressure (mmHg): -0.569 | melting point: 16 °C

CCN(CC)c1ccc(Cl)cc1
boiling point: 252 °C | melting point: 45.5 °C

CCCC(C)C(C)(C)CC (configuration not stated)
boiling point: 162 °C

CCOC(OCC)C(Cl)(Cl)Cl
boiling point: 197 °C

C#CCOc1ccc(N)cc1C(=O)NCCCC
melting point: 84 °C

CC(C)(C)C1CCC(O)CC1 (configuration not stated)
log10 vapour pressure (mmHg): -1.15 | melting point: 66 °C

FC(F)(I)C(F)(F)I
boiling point: 112 °C

CCOC(=O)c1cccc(O)c1
melting point: 74 °C | ready biodegradability: readily biodegradable

NC(=O)/C=C/C(=O)[O-]
melting point: 172 °C

C=C(C)CN(CC)c1c([N+](=O)[O-])cc(C(F)(F)F)cc1[N+](=O)[O-]
log10 Koc (L/kg): 3.6 | log10 vapour pressure (mmHg): -4.06 | melting point: 55.5 °C

CCCCCCCCCCCCCC(=O)OC(C)C
log10 vapour pressure (mmHg): -4.03 | melting point: 3 °C

ClC(Cl)(Br)Br
boiling point: 150 °C | melting point: 38 °C

CC(C)c1ccncc1
boiling point: 178 °C | melting point: -54.9 °C

C[C@@H](CN)c1ccccc1
boiling point: 210 °C

COCC(=O)c1ccccc1
boiling point: 245 °C | melting point: 8 °C

COc1cc(C#N)ccc1O
melting point: 86 °C

Cc1c(O)c(Br)c(Br)c(Br)c1Br
melting point: 208 °C

C=COCC(C)C
boiling point: 83 °C | log10 vapour pressure (mmHg): 1.77 | melting point: -112 °C

FC(F)(Cl)CBr
boiling point: 68.4 °C | melting point: -76 °C

CC(C)(C(=O)O)n1nnc2ccccc21
melting point: 182 °C

Clc1ccc(-c2c(Cl)ccc(Cl)c2Cl)cc1
log10 Henry constant (atm·m³/mol): -3.85 | log10 Koa: 8.41 | log10 biotransformation half-life (days): 2.35

ClC=CCCl
ready biodegradability: not readily biodegradable

C=Cc1ccc(F)cc1
melting point: -34.5 °C

CCCN(CCC)C(=O)SCC
log10 Koc (L/kg): 2.38 | log10 vapour pressure (mmHg): -1.62

Nc1cccc2cnccc12
melting point: 128 °C

N#CCCCCCN
boiling point: 236 °C | log10 vapour pressure (mmHg): -0.745 | melting point: -31.4 °C

CCCCCC(O)(CC)CC
boiling point: 199 °C

C=CCCC(C)C
boiling point: 85.3 °C

OC[C@H]1O[C@@H](Oc2ccc(O)cc2)[C@H](O)[C@@H](O)[C@@H]1O
melting point: 200 °C

O=C(CCc1ccccc1)CCc1ccccc1
boiling point: 352 °C | melting point: 13.5 °C

CCC1(C)CC(=O)NC(=O)C1
melting point: 126 °C

O=P(O)(O)C(Cl)(Cl)P(=O)(O)O
melting point: 250 °C

O=C(Oc1ccccc1)c1ccccc1
boiling point: 314 °C | log10 Koc (L/kg): 3.16 | log10 vapour pressure (mmHg): -2.77 | melting point: 71 °C

ClCC=Cc1ccccc1
melting point: -19 °C

Cc1cc(Cl)nc2ccccc12
boiling point: 296 °C | melting point: 59 °C

CN(C)c1ccc(N=O)cc1
melting point: 92.5 °C

c1ccsc1
boiling point: 84 °C | log10 Henry constant (atm·m³/mol): -2.64 | log10 vapour pressure (mmHg): 1.9 | melting point: -39.4 °C | ready biodegradability: not readily biodegradable | log10 BCF: 0.95 | log10 biotransformation half-life (days): -0.82

Cc1ccc(CCl)c(C)c1
boiling point: 216 °C

O=C(O)C1C(C(=O)O)C2(Cl)C(Cl)=C(Cl)C1(Cl)C2(Cl)Cl (configuration not stated)
log10 Koc (L/kg): 2.79 | melting point: 209 °C | ready biodegradability: not readily biodegradable | log10 BCF: 0.32

C[C@@H](S)C(=O)O
melting point: 12 °C

CCCCCC(C)(C)O
boiling point: 156 °C | melting point: -50.4 °C

Clc1ccc(-c2cc(Cl)cc(Cl)c2Cl)cc1
log10 biotransformation half-life (days): 2.43

C=CCC#N
boiling point: 119 °C | log10 vapour pressure (mmHg): 1.27 | melting point: -87 °C

CC1CCCc2ccccc21 (configuration not stated)
boiling point: 221 °C

CCCCC(CC)C(=O)OCC(COC(=O)C(CC)CCCC)(COC(=O)C(CC)CCCC)COC(=O)C(CC)CCCC (configuration not stated)
ready biodegradability: not readily biodegradable

CCc1ccccc1-c1ccccc1CC
ready biodegradability: not readily biodegradable

CCO/N=C(\OC(=O)c1ccccc1)c1c(OC)ccc(Cl)c1OC
melting point: 73 °C

CN(CC(=O)O)C(=O)COC(=O)c1ccccc1
melting point: 106 °C

CCOP(=O)(OCC)ON1C(=O)c2cccc3cccc(c23)C1=O
melting point: 177 °C

O=S(=O)(Cl)c1ccc2ccccc2c1
melting point: 81 °C

CCCCCC#CCO
melting point: -18 °C

BrCCCCCCCCCCCCBr
melting point: 41 °C

CC(C)NCC(O)COc1cccc2[nH]ccc12 (configuration not stated)
melting point: 171 °C

CCCCCCCCn1sccc1=O
log10 vapour pressure (mmHg): -4.43

CCCCCCCCC(=O)OCC
boiling point: 227 °C | melting point: -36.7 °C

O=[N+]([O-])c1ccc(N=C=S)cc1
melting point: 111 °C

Brc1cc(Br)c(-c2c(Br)cc(Br)cc2Br)c(Br)c1
log10 Koc (L/kg): 4.87 | log10 BCF: 4.66 | log10 biotransformation half-life (days): 2.66

O=C(O)Cc1cccc([N+](=O)[O-])c1
melting point: 118 °C

O[C@H]1C=CCCC1
boiling point: 164 °C

CCCCOC(=O)C1(O)c2ccccc2-c2ccccc21
melting point: 71 °C

Nc1ccc(S(=O)(=O)NC(=O)c2ccccc2)cc1
melting point: 182 °C

N#CC1CC1
boiling point: 135 °C

CC(COc1ccc(C(C)(C)C)cc1)OS(=O)OCCCl (configuration not stated)
melting point: -31.7 °C

CCC(C)(CC)c1ccccc1
boiling point: 205 °C

Cc1cc(C)c(Br)cc1C
boiling point: 234 °C | melting point: 73 °C

Cc1cc(Cl)ccc1OCCCC(=O)O
log10 Koc (L/kg): 2.73 | log10 vapour pressure (mmHg): -6.36 | melting point: 100 °C

CCOC(=O)/C=C\C(=O)OCC
boiling point: 218 °C | log10 vapour pressure (mmHg): -0.979 | melting point: -3.65 °C

CC(C)CCCCCCCCCCCO
melting point: 10.5 °C

CCC(Cl)CCl (configuration not stated)
boiling point: 124 °C | log10 vapour pressure (mmHg): 1.32

CN1[C@H]2CC[C@@H]1[C@@H](C(=O)O)[C@H](O)C2
melting point: 205 °C

C=CCSSSC
log10 vapour pressure (mmHg): -1.3

O=[N+]([O-])c1ccc(Cl)c(Cl)c1Cl
melting point: 55.5 °C | log10 BCF: 2.2 | log10 biotransformation half-life (days): -0.19

CCCCCCCCC(=O)CC
boiling point: 227 °C | melting point: 12 °C

CNC(=O)Oc1cc(C)c(N(C)C)c(C)c1
log10 Koc (L/kg): 2.48 | melting point: 85 °C | log10 BCF: 1.42

C=C(C)C(N)=O
log10 vapour pressure (mmHg): -1.07 | melting point: 110 °C

Cc1c(O)ccc(O)c1C
melting point: 224 °C

CCC1(c2ccccc2)C(=O)N(COC)C(=O)N(COC)C1=O
melting point: 117 °C

CC(=O)O[C@H]1C[C@@H]2CC[C@@H]3[C@H](CC[C@@]4(C)[C@H]3C[C@H]([N+]3(C)CCCCC3)[C@@H]4OC(C)=O)[C@@]2(C)C[C@@H]1[N+]1(C)CCCCC1.[Br-].[Br-]
melting point: 215 °C

C/C=C/C(C)CC (configuration not stated)
boiling point: 87.6 °C | melting point: -126 °C

Cc1cccc(N2CC(CO)OC2=O)c1 (configuration not stated)
melting point: 76 °C

c1ccc(-c2ccc(-c3ccccc3)o2)cc1
boiling point: 344 °C | melting point: 91 °C

CC1C2Cc3ccc(O)cc3C1(C)CCN2CCc1ccccc1 (configuration not stated)
melting point: 181 °C

Cc1ccccc1Cc1ccccc1
boiling point: 280 °C | melting point: 6.6 °C

CC=CCCCC
log10 vapour pressure (mmHg): 1.68

CCO[Si](c1ccccc1)(c1ccccc1)c1ccccc1
boiling point: 344 °C | melting point: 65 °C

CC(=O)N(c1onc(C)c1C)S(=O)(=O)c1ccc(N)cc1
melting point: 194 °C

O=C(Nc1ccc(Oc2ccc(Cl)cc2)c(Cl)c1)c1cc(I)cc(I)c1O
melting point: 169 °C

BrCCCCCCBr
boiling point: 246 °C | melting point: -2.3 °C

CCCC(=O)CCC
boiling point: 144 °C | log10 vapour pressure (mmHg): 0.787 | melting point: -33 °C

Nc1ccc(-c2ccc(N)cc2Cl)c(Cl)c1
melting point: 165 °C

CN(C)C(CSC(N)=O)CSC(N)=O.Cl
melting point: 180 °C

CCOC(=O)C(Cl)(Cl)Cl
boiling point: 168 °C | log10 vapour pressure (mmHg): 0.581

Reference: the OPERA property sets (Mansouri et al. 2018)
